Experimental data: patent US20230309556A1, “HERBICIDAL COMPOSITIONS RELATED TO OXALOACETATE AND METHODS AND USE THEREOF” (priority 2021, published 2023)

Test system: plants
Assay: general screening of the herbicidal effect
Type: in vivo
Conditions: 10% w/w; compared with Roundup RTU and Bayer Advanced at 10% and 100% Label Rate; results shown in FIG. 1
Protocol: A general screening of the herbicidal effect of the following compounds was carried out: Bayer Advanced (100% Label Rate), Bayer Advanced (10% Lable Rate), UTC, Diethyl Oxalacetate (10% w/w), Roundup, rtu (10% Label Rate) and Roundup RTU (100% Label Rate).

With CCOC(=O)CC(=O)C(=O)OCC [Diethyl Oxalacetate] the herbicidal activity was “comparable to well-known herbicide products such as Roundup and Bayer Advanced”.
